Earlier results, collected in patent US8697713B2, “Pyrrolopyrimidines for pharmaceutical compositions” (Boehringer Ingelheim International GmbH, priority 2006, dated 2014).

Columns and labels:
human Mnk2 protein = human Mnk2 protein (Homo sapiens, UniProt Q9HBH9)
phosphorylated eIF4E = settings: cell culture cells transfected with Mnk2 (Mnk2a or Mnk2b) or Mnk1

human Mnk2 protein, sequence (Q9HBH9 whole entry): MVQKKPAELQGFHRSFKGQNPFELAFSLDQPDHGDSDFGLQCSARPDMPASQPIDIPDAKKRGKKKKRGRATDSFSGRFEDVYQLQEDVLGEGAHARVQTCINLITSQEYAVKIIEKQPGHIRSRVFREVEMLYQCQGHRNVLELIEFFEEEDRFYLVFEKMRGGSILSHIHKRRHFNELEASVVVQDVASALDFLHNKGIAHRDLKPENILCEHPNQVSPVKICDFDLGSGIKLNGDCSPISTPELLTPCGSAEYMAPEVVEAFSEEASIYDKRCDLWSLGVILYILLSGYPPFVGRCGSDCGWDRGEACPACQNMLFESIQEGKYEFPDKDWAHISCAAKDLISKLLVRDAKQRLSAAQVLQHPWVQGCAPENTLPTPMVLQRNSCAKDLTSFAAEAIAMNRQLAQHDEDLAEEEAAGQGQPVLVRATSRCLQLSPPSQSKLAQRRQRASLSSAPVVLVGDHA

| SMILES | binds the human Mnk2 protein (human Mnk2 protein) | reduction of phosphorylated eIF4E (phosphorylated eIF4E) |
| --- | --- | --- |
| COC(=O)c1ccc(O)cc1 [4-hydroxybenzoic acid methyl ester] | binds |  |
| Nc1ncnc2n[nH]c(Nc3ccc(F)cc3)c12 [CGP57380] |  | strong reduction |
